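Cultured in 96-well plates, cells were exposed to test compound for 48 hours across five concentrations. GI50 is the concentration that inhibits growth by half. TGI: concentration producing complete growth inhibition.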

Common to all, as to assay: DTP human tumour cell line panel, 48 h
Experiment [1] has as its system MDA-MB-435.
The subject of experiment [2] is K-562 leukemia.
For experiment [3], the system named is SNB-75 CNS.
Experiment [4] has as its system HCC-2998 colon.
Experiment [5] has as its system HL-60(TB) leukemia.
The subject of experiment [6] is IGROV1 ovarian.
Experiment [7] relates to A549 NSCLC.
Experiment [8] relates to M14 melanoma.
For experiment [9], the system named is DU-145 prostate.
For experiment [10], the system named is HOP-92 NSCLC.

Turning to `Fc1cc(-c2nnc3n2N=C(c2ccc(Cl)cc2)CS3)c(Cl)cc1Cl`, the GI50 in [1] was 4.97 µM; in experiment [2] it was 1.57 µM; in experiment [3], 7.33 µM; in experiment [4] it was 15.9 µM; in experiment [5], 0.96 µM; in experiment [6] it was 4.25 µM. The GI50 in experiment [7] was 18.7 µM; in experiment [8] it was 4.87 µM; in experiment [9], 6.47 µM; in experiment [10] it was 13.7 µM. Also, the TGI in [1] is 18.4 µM; in experiment [2], above 100 µM; in experiment [3], 21.9 µM; in experiment [4] it was 31.1 µM; in experiment [5], above 100 µM; in experiment [6], above 37.6 µM. For the same compound, the TGI in experiment [7] was 41.8 µM; in experiment [8], 17.2 µM; in experiment [9] it was 17.1 µM; in experiment [10] it was 36.1 µM.

Turning to `CCOc1ccc(NC2=CC(=O)C(=O)c3ccccc32)cc1`, the concentration for total growth inhibition (TGI) in experiment [1] was determined as 3.19 µM; in [2] it was 26.9 µM; in experiment [3], 5.35 µM; in [4] it was 26 µM; in [5] it was 4.13 µM; in experiment [6], 16.9 µM. In addition, the TGI in [7] amounted to 7.65 µM; in experiment [8], 3.27 µM; in experiment [9] it was 5.05 µM; in [10], 30.7 µM.

With `c1ccc(-c2n(Cc3ccc4ccccc4n3)cc[n+]2Cc2ccc3ccccc3c2)cc1`, the GI50 was 0.799 µM in experiment [1]; 0.427 µM in experiment [2]; 0.624 µM in [3]; 0.767 µM in [4]; 0.256 µM in experiment [5]; 0.783 µM in [6]. The GI50 in experiment [7] was 2.91 µM; in experiment [8] it was 1.25 µM; in experiment [9] it was 2.7 µM; in [10] it was 0.175 µM. Besides, the TGI in [1] was found to be 2.5 µM; in experiment [2], 4.36 µM; in [3], 3.15 µM; in [4] it was 2.24 µM; in experiment [5], 0.88 µM; in [6] it was 2.43 µM. Besides, the TGI was 12.1 µM in experiment [7], 3.35 µM in experiment [8], 11.3 µM in [9] and 1.46 µM in [10].

For `CCNC(=O)C#Cc1ccc2c(C(=Nc3ccc(CN(C)C)cc3)c3ccccc3)c(O)[nH]c2c1`, the GI50 in experiment [1] is 0.0127 µM; in experiment [2] it was 0.344 µM; in [3], 0.75 µM; in experiment [4], 0.106 µM; in experiment [5], 0.00976 µM; in [6], 0.0511 µM. Moreover, the GI50 in [7] is 0.0401 µM; in [8], 0.00782 µM; in experiment [9], 1.26 µM; in [10] it was 0.00812 µM. The TGI was 2.51 µM in experiment [1]; 3.92 µM in experiment [2]; 2.21 µM in [3]; 0.696 µM in [4]; 0.932 µM in experiment [5]; above 3.29 µM in experiment [6]. For the same compound, the TGI in [7] is above 5.34 µM; in [8], 0.114 µM; in experiment [9], above 10 µM; in experiment [10], 0.0532 µM.

For `COc1ccc2ncnc(Nc3ccc(OCc4ccccc4)cc3)c2c1`, the GI50 was 7.22 µM in [1]; 9.01 µM in [2]; 9.78 µM in experiment [3]; 6.42 µM in [4]; 7.06 µM in experiment [5]; 6.61 µM in [6]. The GI50 in experiment [7] is 5.98 µM; in experiment [8] it was 8.48 µM; in experiment [9], 8.2 µM; in experiment [10], 2.92 µM. In addition, the TGI in [1] was above 21.1 µM; in experiment [2], above 25 µM; in [3] it was above 25 µM; in [4] it was 18 µM; in experiment [5], 16.8 µM; in experiment [6], above 22.2 µM. Further, the TGI in experiment [7] is above 25 µM; in experiment [8], above 25 µM; in experiment [9], above 25 µM; in experiment [10], 16.9 µM.

For `CC(=C(c1ccc(OCCN2CCCCC2)cc1)c1ccc(OCCN2CCCCC2)cc1)c1ccc(Cl)cc1`, the GI50 is 0.416 µM in [1]; 0.0775 µM in experiment [2]; 0.325 µM in [3]; 0.396 µM in experiment [4]; 0.452 µM in experiment [5]; 0.432 µM in experiment [6]. Moreover, the GI50 in experiment [7] was 0.457 µM; in experiment [8], 0.438 µM; in experiment [9], 0.458 µM; in [10], 0.343 µM. The TGI in experiment [1] was 0.777 µM; in [2], 0.362 µM; in experiment [3], 0.673 µM; in [4] it was 0.755 µM; in [5] it was 0.957 µM; in experiment [6] it was 0.82 µM. Moreover, the concentration for total growth inhibition (TGI) worked out at 0.914 µM in [7], 0.837 µM in experiment [8], 0.87 µM in experiment [9] and 0.711 µM in experiment [10].

Turning to `C[C@@H]1CC[C@H]2C(C)(C)[C@H]3C[C@@]12CC[C@@]3(C)O`, the TGI in experiment [1] is above 100 µM; in experiment [2] it was above 100 µM; in experiment [3], above 100 µM; in experiment [4], above 100 µM; in [5] it was 61.9 µM; in [6], above 100 µM. For the same compound, the TGI in [7], in experiment [8], in [9] and in [10] was above 100 µM each time.

With `CCCCCCCCCCSC(=N)N` (tested in a mixture with another compound), the GI50 was 1.7 µM in [1]; 1.72 µM in experiment [2]; 1.42 µM in experiment [3]; 1.6 µM in [4]; 1.85 µM in [5]; 5.2 µM in experiment [6]. Also, the GI50 was 4.36 µM in experiment [7], 1.87 µM in experiment [8], 4.47 µM in experiment [9] and 2.66 µM in experiment [10]. Also, the TGI stood at 3.27 µM in experiment [1]; 5.88 µM in [2]; 3.43 µM in experiment [3]; 3.05 µM in experiment [4]; 4.19 µM in experiment [5]; 18.9 µM in experiment [6]. For the same compound, the TGI in experiment [7] was 18 µM; in experiment [8] it was 3.85 µM; in experiment [9], 16.1 µM; in experiment [10] it was 8.83 µM.

`Cc1ccc(-c2nc(N3CCNCC3)c3oc(-c4ccc(C)cc4)nc3n2)cc1`: the GI50 in experiment [1] was 2.3 µM; in [2], 1.81 µM; in experiment [3], 8.66 µM; in experiment [4] it was 3.61 µM; in experiment [5], 1.17 µM; in experiment [6], 1.92 µM. Besides, the GI50 in [7] is 3.35 µM; in experiment [8], 1.83 µM; in [9], 1.98 µM; in experiment [10], 11.5 µM. In addition, the TGI was 6.22 µM in [1]; 4.51 µM in [2]; above 32.1 µM in experiment [3]; 3.26 µM in experiment [5]; 3.81 µM in experiment [6]; 12.4 µM in experiment [7]. The figures for the TGI in experiment [8], in [9] and in experiment [10] were 3.69 µM, 3.76 µM and 26.5 µM, respectively.

Regarding `OC(c1cc(C(F)(F)F)nc2c(C(F)(F)F)cccc12)C1CCCCN1` (centres undefined), the GI50 in experiment [1] was 1.8 µM; in experiment [2], 3.12 µM; in experiment [3], 2.34 µM; in experiment [4] it was 1.46 µM; in experiment [5], 2.46 µM; in experiment [6] it was 2.21 µM. The GI50 in [7] was 2.24 µM; in [8], 1.83 µM; in experiment [9] it was 2.76 µM; in experiment [10] it was 1.01 µM. Further, the concentration for total growth inhibition (TGI) in experiment [1] is 3.66 µM; in experiment [2], 6.47 µM; in experiment [3], 11.7 µM; in experiment [4] it was 3.22 µM; in experiment [5], 4.6 µM; in experiment [6], 5.58 µM. In addition, the TGI was found to be 6.33 µM in [7], 3.41 µM in experiment [8], 6.16 µM in experiment [9] and 3.69 µM in experiment [10].

In the case of `CC(C)(C)[Si](C)(C)OC1[C@@H](O[Si](C)(C)C(C)(C)C)[C@@H](CNC(=O)NC(=O)C(F)(F)F)O[C@H]1n1cnc2c(NC(=O)Nc3ccccc3)ncnc21` (some centres undefined), the GI50 in [1] was 5.52 µM; in experiment [2], 8.16 µM; in experiment [3], 5.68 µM; in experiment [4], 4.28 µM; in experiment [5], 9.3 µM; in [6] it was 8.32 µM. The GI50 was 4.5 µM in [7], 5.72 µM in [8], 6.52 µM in experiment [9] and 5.2 µM in experiment [10]. For the same compound, the TGI in experiment [1] worked out at 16.4 µM; in [2], 24.7 µM; in [3] it was 12.7 µM; in experiment [4] it was 10.6 µM; in experiment [5] it was 26.4 µM; in experiment [6] it was 17.4 µM. The TGI in experiment [7] is 12.4 µM; in experiment [8], 13.2 µM; in experiment [9], 13.2 µM; in [10], 11.8 µM.

As for `CN1CCN(c2ccc(Nc3ncc(Cl)c(NC[C@@H]4CCCO4)n3)cc2)CC1`, the GI50 is 1.64 µM in [1]; 2.94 µM in experiment [2]; 1.14 µM in experiment [3]; 1.65 µM in [4]; 1.48 µM in experiment [5]; 1.56 µM in experiment [6]. Moreover, the GI50 in experiment [7] is 1.05 µM; in [8], 1.13 µM; in experiment [9], 1.96 µM; in experiment [10] it was 1.68 µM. In addition, the TGI was 15.3 µM in [1]; above 100 µM in experiment [2]; 4.72 µM in experiment [3]; 37.5 µM in [4]; 4.76 µM in [5]; above 100 µM in experiment [6]. Also, the total growth inhibition concentration (TGI) in [7] is 5.5 µM; in experiment [8], 11.2 µM; in [9], above 100 µM; in experiment [10], 6.44 µM.

In the case of `Br[Se]c1ccccn1`, the total growth inhibition concentration (TGI) was 31.8 µM in [1]; 72 µM in experiment [2]; 30.7 µM in experiment [3]; 35.5 µM in experiment [4]; 40.3 µM in [5]; 31.5 µM in experiment [6]. Also, the total growth inhibition concentration (TGI) was 44.3 µM in [7], 31.7 µM in experiment [8], 30.8 µM in experiment [9] and 33 µM in [10].

The values are drawn from PubChem BioAssay (NCI).
